Measurements as given in PubChem BioAssay (NCI).
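Dose response: 5 concentrations. Exposure: 48 h. Format: 96-well plates. Endpoint: linear interpolation; highest concentration if not reached. GI50 = concentration required for 50% inhibition of growth. TGI: total growth inhibition.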

What was measured:
Assay in all cases: inhibition of tumour cell growth, NCI panel, 48 h
786-0 renal = test system: 786-0 renal
RPMI-8226 leukemia = test system: RPMI-8226 leukemia
UACC-62 melanoma = test system: UACC-62 melanoma
SNB-75 CNS = test system: SNB-75 CNS
A549 NSCLC = test system: A549 NSCLC
IGROV1 ovarian = test system: IGROV1 ovarian
PC-3 prostate = test system: PC-3 prostate
LOX IMVI melanoma = test system: LOX IMVI melanoma
NCI-H226 lung = test system: NCI-H226 lung
OVCAR-8 ovarian = test system: OVCAR-8 ovarian
EKVX NSCLC = test system: EKVX NSCLC
UACC-257 melanoma = test system: UACC-257 melanoma
OVCAR-5 ovarian = test system: OVCAR-5 ovarian
U251 CNS = test system: U251 CNS
HCT-15 colon = test system: HCT-15 colon
MCF7 breast = test system: MCF7 breast
DU-145 prostate = test system: DU-145 prostate
MDA-MB-231 breast = test system: MDA-MB-231 breast
TK-10 renal = test system: TK-10 renal
HCC-2998 colon = test system: HCC-2998 colon
MALME-3M melanoma = test system: MALME-3M melanoma
MDA-MB-435 = test system: MDA-MB-435
HOP-92 NSCLC = test system: HOP-92 NSCLC
CCRF-CEM leukemia = test system: CCRF-CEM leukemia
NCI-H522 lung = test system: NCI-H522 lung
HT29 colon = test system: HT29 colon
KM12 colon = test system: KM12 colon
SR leukemia = test system: SR leukemia
SW-620 colon = test system: SW-620 colon
OVCAR-3 ovarian = test system: OVCAR-3 ovarian
SK-MEL-28 melanoma = test system: SK-MEL-28 melanoma
RXF 393 renal = test system: RXF 393 renal
A498 renal = test system: A498 renal
SF-268 CNS = test system: SF-268 CNS
NCI-H460 lung = test system: NCI-H460 lung
ACHN renal = test system: ACHN renal
M14 melanoma = test system: M14 melanoma
SN12C renal = test system: SN12C renal
NCI/ADR-RES ovarian = test system: NCI/ADR-RES ovarian
SK-MEL-2 melanoma = test system: SK-MEL-2 melanoma
CAKI-1 renal = test system: CAKI-1 renal
SK-OV-3 ovarian = test system: SK-OV-3 ovarian
NCI-H23 lung = test system: NCI-H23 lung
MOLT-4 leukemia = test system: MOLT-4 leukemia
HOP-62 NSCLC = test system: HOP-62 NSCLC
BT-549 breast = test system: BT-549 breast
T-47D breast = test system: T-47D breast
SF-539 CNS = test system: SF-539 CNS
HS 578T breast = test system: HS 578T breast
OVCAR-4 ovarian = test system: OVCAR-4 ovarian
SK-MEL-5 melanoma = test system: SK-MEL-5 melanoma
HCT-116 colon = test system: HCT-116 colon
SNB-19 CNS = test system: SNB-19 CNS
K-562 leukemia = test system: K-562 leukemia
COLO 205 colon = test system: COLO 205 colon
UO-31 renal = test system: UO-31 renal
SF-295 CNS = test system: SF-295 CNS
HL-60(TB) leukemia = test system: HL-60(TB) leukemia

Oc1c(CN2CCCC2)cc(COCc2ccccc2)c2cccnc12
GI50 (786-0 renal): 2.22 µM
TGI (786-0 renal): 8.52 µM
GI50 (RPMI-8226 leukemia): 3.84 µM
TGI (RPMI-8226 leukemia): 19.4 µM
GI50 (UACC-62 melanoma): 1.81 µM
TGI (UACC-62 melanoma): 7.7 µM
GI50 (SNB-75 CNS): 2.79 µM
TGI (SNB-75 CNS): 28.6 µM
GI50 (A549 NSCLC): 3.35 µM
TGI (A549 NSCLC): 14.1 µM
GI50 (IGROV1 ovarian): 3.54 µM
TGI (IGROV1 ovarian): 13.8 µM
GI50 (PC-3 prostate): 2.73 µM
TGI (PC-3 prostate): 23.3 µM
GI50 (LOX IMVI melanoma): 0.798 µM
TGI (LOX IMVI melanoma): 5.61 µM
GI50 (NCI-H226 lung): 2.69 µM
TGI (NCI-H226 lung): 12 µM
GI50 (OVCAR-8 ovarian): 2.53 µM
TGI (OVCAR-8 ovarian): 12 µM
GI50 (EKVX NSCLC): 2.01 µM
TGI (EKVX NSCLC): 15.6 µM
GI50 (UACC-257 melanoma): 2.84 µM
TGI (UACC-257 melanoma): 8.25 µM
GI50 (OVCAR-5 ovarian): 4.1 µM
TGI (OVCAR-5 ovarian): 21.2 µM
GI50 (U251 CNS): 2.07 µM
TGI (U251 CNS): 13.3 µM
GI50 (HCT-15 colon): 0.152 µM
TGI (HCT-15 colon): 2.9 µM
GI50 (MCF7 breast): 2.82 µM
TGI (MCF7 breast): 13.3 µM
GI50 (DU-145 prostate): 3.4 µM
TGI (DU-145 prostate): 16.8 µM
GI50 (MDA-MB-231 breast): 4.98 µM
TGI (MDA-MB-231 breast): 20.1 µM
GI50 (TK-10 renal): 1.84 µM
TGI (TK-10 renal): 22.3 µM
GI50 (HCC-2998 colon): 3.72 µM
TGI (HCC-2998 colon): 16.5 µM
GI50 (MALME-3M melanoma): 3.35 µM
TGI (MALME-3M melanoma): 14.4 µM
GI50 (MDA-MB-435): 4.43 µM
TGI (MDA-MB-435): 26.3 µM
GI50 (HOP-92 NSCLC): 7.15 µM
TGI (HOP-92 NSCLC): 26.6 µM
GI50 (CCRF-CEM leukemia): 1.43 µM
TGI (CCRF-CEM leukemia): 15.4 µM
GI50 (NCI-H522 lung): 2.62 µM
TGI (NCI-H522 lung): 9.97 µM
GI50 (HT29 colon): 10.4 µM
TGI (HT29 colon): 26.5 µM
GI50 (KM12 colon): 2.14 µM
TGI (KM12 colon): 18.2 µM
GI50 (SR leukemia): 1.83 µM
TGI (SR leukemia): 16.9 µM
GI50 (SW-620 colon): 3.27 µM
TGI (SW-620 colon): 18.2 µM
GI50 (OVCAR-3 ovarian): 2.13 µM
TGI (OVCAR-3 ovarian): 13.3 µM
GI50 (SK-MEL-28 melanoma): 3.49 µM
TGI (SK-MEL-28 melanoma): 18.6 µM
GI50 (RXF 393 renal): 2.11 µM
TGI (RXF 393 renal): 8.29 µM
GI50 (A498 renal): 3.82 µM
TGI (A498 renal): 15 µM
GI50 (SF-268 CNS): 1.99 µM
TGI (SF-268 CNS): 18.5 µM
GI50 (NCI-H460 lung): 0.774 µM
TGI (NCI-H460 lung): 11.8 µM
GI50 (ACHN renal): 0.358 µM
TGI (ACHN renal): 10.2 µM
GI50 (M14 melanoma): 1.11 µM
TGI (M14 melanoma): 10.1 µM
GI50 (SN12C renal): 4.04 µM
TGI (SN12C renal): 20.8 µM
GI50 (NCI/ADR-RES ovarian): 0.152 µM
TGI (NCI/ADR-RES ovarian): 0.761 µM
GI50 (SK-MEL-2 melanoma): 4.68 µM
TGI (SK-MEL-2 melanoma): 20.1 µM
GI50 (CAKI-1 renal): 0.26 µM
TGI (CAKI-1 renal): 14.2 µM
GI50 (SK-OV-3 ovarian): 2.02 µM
TGI (SK-OV-3 ovarian): 9.27 µM
GI50 (NCI-H23 lung): 2.89 µM
TGI (NCI-H23 lung): 11.6 µM
GI50 (MOLT-4 leukemia): 2.96 µM
TGI (MOLT-4 leukemia): 11.4 µM
GI50 (HOP-62 NSCLC): 1.65 µM
TGI (HOP-62 NSCLC): 9.5 µM
GI50 (BT-549 breast): 3.52 µM
TGI (BT-549 breast): 18.1 µM
GI50 (T-47D breast): 2.97 µM
TGI (T-47D breast): 15.4 µM
GI50 (SF-539 CNS): 2.89 µM
TGI (SF-539 CNS): 10.1 µM
GI50 (HS 578T breast): 8.71 µM
TGI (HS 578T breast): 58.7 µM
GI50 (OVCAR-4 ovarian): 0.903 µM
TGI (OVCAR-4 ovarian): 13.6 µM
GI50 (SK-MEL-5 melanoma): 1.12 µM
TGI (SK-MEL-5 melanoma): 4.76 µM
GI50 (HCT-116 colon): 2.65 µM
TGI (HCT-116 colon): 11 µM
GI50 (SNB-19 CNS): 3.53 µM
TGI (SNB-19 CNS): 92.4 µM
GI50 (K-562 leukemia): 2.62 µM
TGI (K-562 leukemia): 20.7 µM
GI50 (COLO 205 colon): 10.4 µM
TGI (COLO 205 colon): 26.6 µM
GI50 (UO-31 renal): 0.158 µM
TGI (UO-31 renal): 2.55 µM
GI50 (SF-295 CNS): 2.86 µM
TGI (SF-295 CNS): 13.7 µM
GI50 (HL-60(TB) leukemia): 2.52 µM
TGI (HL-60(TB) leukemia): 8.95 µM
